What was measured:
WT STING = WT STING (Homo sapiens, UniProt Q86WV6, H232R); test: Differential scanning fluorimetry (DSF) with WT STING; format: binding; set-up: truncated human WT STING or AQ STING (amino acid residues 140-343); 8xHis (N, cleaved yes); SUMO (N, cleaved yes); made in house; host or cells: E. coli Rosetta-gami B (DE3); conditions: thermal shift, truncated human WT STING 0.1 mg/ml, 150 μM CDN; read-out: DSF ΔTm WT STING
Source text: (§1) Both WT and AQ human STING (G230A-R^293Q) cDNA were amplified by the use of PCR (Phusion® High-Fidelity DNA Polymerase, cat. # M0530S, NEB, Ipswich, USA) using oligonucleotides hSTING140-BamH-For ([…]) (SEQ ID NO:5) and hSTING379-Not-Rev3 ([…]) (SEQ ID NO:6) from pUNOI-hSTING-WT (cat. # punol-hstingwt, InvivoGen, San Diego, USA) and pUNO1-hSTING-HAQ plasmids (punol-hsting-haq, InvivoGen, San Diego, USA). Purified PCR products were cleaved with restriction enzymes BamHI (cat. # R^0136S, NEB, Ipswich, USA) and NotI (cat. # R^0189S, NEB, Ipswich, USA) and cloned into the pSUMO vector linearized with the identical enzymes. Plasmid pSUMO was created by introducing 8-His-SUMO sequence between NdeI and BamHI sites of pHis-parallel2 plasmid (Clontech, Moutain View, USA). pSUMO-STING WT or pSUMO-STING AQ plasmids thus encoded truncated human WT STING or AQ STING (amino acid residues 140-343) with N-terminal 8×His and SUMO tag.
(§2) The recombinant WT STING and AQ STING proteins were overexpressed in Rosetta-gami B (DE3) competent cells (cat. #71136-3, Merck Millipore, Billerica, USA). Bacterial pellets were re-suspended in ice-cold lysis buffer containing 50 mmol·l^−1 TrisCl (cat. # T1503, Sigma Aldrich, Czech Republic) pH 8.0, 300 mmol·l^−1 NaCl, 3 mmol·l^−1 (3-mercaptoethanol (cat. # M6250, Sigma Aldrich, Czech Republic), 10% glycerol (cat. #G5516, Sigma Aldrich, Czech Republic) and 20 mmol·l^−1 imidazole (cat. #15513, Sigma Aldrich, Czech Republic) using Dounce homogenizer. DNase I (cat. # D5025, Sigma Aldrich, Czech Republic) and RNase A (cat. # R^6513, Sigma Aldrich, Czech Republic) were added (final concentration 50 μg/ml) together with MgCl2 (final concentration 5 mmol·l^−1) to the homogenate and bacteria were lysed using French Press G-M™ High-Pressure Cell Press Homogenizer (1500 psi, 3 cycles). Lysate was spun 30,000 g for 20 minutes and supernatant was gently stirred with Ni-NTA resin (cat. #745400.25 Macherey-Nagel, Duren, Germany) for 30 minutes. The resin was poured into a chromatography column, washed with 50 ml buffer A (50 mmol·l^−1 TrisCl (pH 8.0), 800 mmol·l^−1 NaCl, 3 mmol·l^−1β-mercaptoethanol; 10% glycerol; 20 mmol·l^−1 imidazole) and 8-His-SUMO tagged STING proteins were eluted with 15 ml buffer A containing 300 mmol·l^−1 imidazole. The eluted proteins were cleaved with recombinant SUMO protease (80 pig/ml of protein solution, cat. #12588018, ThermoFisher, Waltham, USA). The proteins were further purified by size exclusion chromatography using HiLoad 16/60 Superdex 75 (cat. #28989333, GE Healthcare Bio-Sciences, Pittsburgh, USA) in 50 mmol·l^−1 Tris C1 buffer pH 7.4 containing 150 mmol·l^−1 NaCl, and 10% glycerol. Proteins were concentrated with Amicon® Ultra-15 10 K device (cat. # UFC901008, Merck Millipore, Billerica, USA) and flash frozen in liquid N2.
(§3) WT and AQ allelic forms of STING protein were diluted to the final concentration 0.1 mg/ml in 100 mmol·l^−1 TrisCl buffer pH 7.4 containing, 150 mmol·l^−1 NaCl, 1:500 SYPRO Orange (cat. # S6650, ThermoFisher, Waltham, USA) and 150 μM CDN or water. 20 μL solutions of the reaction mixtures were pipetted in triplicates into 96 well optical reaction plates and thermal denaturation of samples were performed on real time PCR cycler (LightCycler® 480 Instrument II—Roche, Basel, Switzerland). The first derivative of the thermal denaturation curves was performed to calculate denaturing temperatures of STING-CDN complexes and STING apoproteins. The thermal shift for each CDN was calculated by subtracting the average denaturing temperature of STING apoprotein from the average denaturing temperature of STING CDN complex.

AQ STING (G230A-R293Q) = biological target: T1, AQ STING (G230A-R293Q) (Homo sapiens, UniProt Q86WV6, G230A/H232R/R293Q); test: Differential scanning fluorimetry (DSF) with AQ STING; format: binding; conditions: thermal shift, truncated human AQ STING 0.1 mg/ml, 150 μM CDN; read-out: DSF ΔTm AQ STING
T1 construct: truncated human WT STING or AQ STING (amino acid residues 140-343); 8xHis (N, cleaved yes); SUMO (N, cleaved yes); made in house; host or cells: E. coli Rosetta-gami B (DE3)
T1 sequence (Q86WV6 140-343 G230A/H232R/R293Q): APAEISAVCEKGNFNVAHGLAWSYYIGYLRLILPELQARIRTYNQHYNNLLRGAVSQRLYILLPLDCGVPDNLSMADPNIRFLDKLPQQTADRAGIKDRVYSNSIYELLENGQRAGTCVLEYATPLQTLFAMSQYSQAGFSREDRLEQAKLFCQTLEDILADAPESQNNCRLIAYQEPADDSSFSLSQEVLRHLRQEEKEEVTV
Source text: as §1, §2, §3

Chain of WT STING (Q86WV6 140-343 H232R): as the sequence (Q86WV6 140-343 G230A/H232R/R293Q) above, with A91G, Q154R counted along it

Structure (SMILES)	ΔTm at 150 µM (WT STING) [°C]	ΔTm at 150 µM (AQ STING (G230A-R293Q)) [°C]
Nc1ncc2ncn([C@@H]3O[C@@H]4COP(=O)(O)OC5C(O)[C@@H](COP(=O)(O)OC4C3O)C[C@H]5n3cnc4c(=O)[nH]c(N)nc43)c2n1 (stereo partly drawn) [Compound 106, (6R,8R,15R,17R)-17-(2-amino-6-oxo-6,9-dihydro-1H-purin-9-yl)-8-(2-amino-9H-purin-9-yl)-3,9,12,18-tetrahydroxy-2,4,7,11,13-pentaoxa-3λ^5,12λ^5-diphosphatricyclo[13.2.1.0^6,10]octadecane-3,12-dione]	5.5	13.8
Nc1nc2c(ncn2[C@@H]2C[C@@H]3COP(=O)(O)OC4C(O)[C@H](n5cnc6c(N)nc(F)nc65)O[C@@H]4COP(=O)(O)OC2C3O)c(=O)[nH]1 (stereo partly drawn) [Compound 103, (6R,8R,15R,17R)-8-(6-amino-2-fluoro-9H-purin-9-yl)-17-(2-amino-6-oxo-6,9-dihydro-1H-purin-9-yl)-3,9,12,18-tetrahydroxy-2,4,7,11,13-pentaoxa-3λ^5,12λ^5-diphosphatricyclo[13.2.1.0^6,10]octadecane-3,12-dione]	7.9	15.2
Nc1nc2c(ncn2[C@@H]2C[C@@H]3COP(=O)(O)OC4C(O)[C@H](n5cnc6c(S)ncnc65)O[C@@H]4COP(=O)(O)OC2C3O)c(=O)[nH]1 (stereo partly drawn) [Compound 107, (6R,8R,15R,17R)-17-(2-amino-6-oxo-6,9-dihydro-1H-purin-9-yl)-3,9,12,18-tetrahydroxy-8-(6-sulfanyl-9H-purin-9-yl)-2,4,7,11,13-pentaoxa-3λ^5,12λ^5-diphosphatricyclo[13.2.1.0^6,10]octadecane-3,12-dione]	2.2	7.9
Nc1ncnc2c1ncn2[C@@H]1O[C@@H]2COP(=O)(O)O[C@@H]3[C@H](F)[C@@H](COP(=O)(O)O[C@H]2[C@H]1F)C[C@H]3n1cnc2c(=O)[nH]cnc21 [Compound 127]	8.2	16.8

The remaining lines, values ahead:

ΔTm at 150 µM (WT STING) [°C]	ΔTm at 150 µM (AQ STING (G230A-R293Q)) [°C]	Structure (SMILES)
8.5	16	Nc1nc2c(ncn2[C@@H]2C[C@@H]3COP(=O)(S)OC4C(O)[C@H](n5cnc6c(N)ncnc65)O[C@@H]4COP(=O)(O)OC2C3O)c(=O)[nH]1 (stereo partly drawn) [Compound 118, (6R,8R,15R,17R)-17-(2-amino-6-oxo-6,9-dihydro-1H-purin-9-yl)-8-(6-amino-9H-purin-9-yl)-3,9,18-trihydroxy-12-sulfanyl-2,4,7,11,13-pentaoxa-3λ^5,12λ^5-diphosphatricyclo[13.2.1.0^6,10]octadecane-3,12-dione]
6.3	12.1	Cc1cn([C@@H]2O[C@@H]3COP(=O)(O)OC4C(O)[C@@H](COP(=O)(O)OC3C2O)C[C@H]4n2cnc3c(=O)[nH]cnc32)c2ncnc(N)c12 (stereo partly drawn) [Compound 123, (6R,8R,15R,17R)-8-{4-amino-5-methyl-7H-pyrrolo[2,3-d]pyrimidin-7-yl}-3,9,12,18-tetrahydroxy-17-(6-oxo-6,9-dihydro-1H-purin-9-yl)-2,4,7,11,13-pentaoxa-3λ^5,12λ^5-diphosphatricyclo[13.2.1.0^6,10]octadecane-3,12-dione]

From patent publication US20190359645A1, “2'3'-CYCLIC DINUCLEOTIDES COMPRISING CARBOCYCLIC NUCLEOTIDE” (Institute of Organic Chemistry and Biochemistry ASCR, V.V.I., priority 2018, published 2019)
